Test results published in ChEMBL document CHEMBL1821723 (J Med Chem, 2011).

Test: in vitro
Conditions: human, liver microsomes
Description: Metabolic stability in human liver microsome assessed as compound remaining after 30 mins

| Structure (SMILES) | remaining at 0.5 h [%] |
| --- | --- |
| CC(Oc1cc(-c2cnn(C(C)C)c2)cnc1N)c1c(Cl)ccc(F)c1Cl (racemic) | 3.2 |
| CC(Oc1cc(-c2cnn(C3CNC3)c2)cnc1N)c1c(Cl)ccc(F)c1Cl (racemic) | 44 |
| CC(Oc1cc(-c2cnn(CC3(O)CCOCC3)c2)cnc1N)c1c(Cl)ccc(F)c1Cl (racemic) | 0.9 |
| CC(Oc1cc(-c2cnn(C)c2)cnc1N)c1c(Cl)ccc(F)c1Cl (racemic) | 5.2 |
| CC(Oc1cc(-c2cnn(CC3CNC3)c2)cnc1N)c1c(Cl)ccc(F)c1Cl (racemic) | 71 |
| CC(Oc1cc(-c2cnn(C3CCCNC3)c2)cnc1N)c1c(Cl)ccc(F)c1Cl (racemic) | 44.3 |
| CC(Oc1cc(-c2cnn(CC(=O)NCCCN(C)C)c2)cnc1N)c1c(Cl)ccc(F)c1Cl (racemic) | 23.8 |
| CC(Oc1cc(-c2cnn(CC3CN(CC(N)=O)C3)c2)cnc1N)c1c(Cl)ccc(F)c1Cl (racemic) | 47.8 |
| CC(Oc1cc(-c2cnn(C(C)(C)C(=O)NCCN(C)C)c2)cnc1N)c1c(Cl)ccc(F)c1Cl (racemic) | 3.6 |
